Measured values taken from ChEMBL document CHEMBL4321836, “Discovery of BAY-298 and BAY-899: Tetrahydro-1,6-naphthyridine-Based, Potent, and Selective Antagonists of the Luteinizing Hormone Receptor Which Reduce Sex Hormone Levels in Vivo” (J Med Chem, 2019).
Values after ≈ are worked out from the molar mass of the structure shown. Active and inactive are the calls of the source. The rule behind the calls is not given here.

Tests used:
[1] = molecular target: Lutropin-choriogonadotropic hormone receptor (Homo sapiens, UniProt P22888); experiment: Antagonist activity at human luteinizing hormone receptor assessed as reduction in agonist-induced cAMP production preincubated for 20 mins followed by agonist solution addition after 60 mins by cell based TR-FRET assay; type: functional
[2] = Apparent permeability across apical to basolateral side in human Caco2 cells at 2 uM after 2 hrs by LC-MS/MS analysis; type: ADME, cell-based; details: Caco-2
[3] = Maximum oral bioavailability in human liver microsomes based well stirred liver model at 1 uM measured after 2 to 60 mins in presence of glucose-6-phosphate by LC-MS/MS analysis; type: ADME, Microsome; details: read-out: Fmax
[4] = Aqueous solubility of the compound at pH 6.5 incubated for 24 hrs under shaking condition by HPLC-MS/MS analysis; type: physicochemical; details: buffer
[5] = Chemical stability of the compound at pH 1 to 10 measured after 1 to 24 hrs by HPLC-UV method; type: physicochemical; details: buffer
[6] = Apparent permeability across basolateral to apical side in human Caco2 cells at 2 uM after 2 hrs by LC-MS/MS analysis; type: ADME, cell-based; details: Caco-2
[7] = Clearance in rat liver microsomes at 1 uM measured after 2 to 60 mins in presence of glucose-6-phosphate by LC-MS/MS analysis; type: ADME, Microsome
[8] = Maximum oral bioavailability in rat liver microsomes based well stirred liver model at 1 uM measured after 2 to 60 mins in presence of glucose-6-phosphate by LC-MS/MS analysis; type: ADME, Microsome; details: read-out: Fmax
Cytochrome P450 2C8 = Cytochrome P450 2C8 (Homo sapiens, UniProt P10632); experiment: Inhibition of CYP2C8 in human liver microsomes using amodiaquine as substrate by LC-MS/MS analysis; type: ADME
Sequence of Cytochrome P450 2C8 (P10632 whole entry): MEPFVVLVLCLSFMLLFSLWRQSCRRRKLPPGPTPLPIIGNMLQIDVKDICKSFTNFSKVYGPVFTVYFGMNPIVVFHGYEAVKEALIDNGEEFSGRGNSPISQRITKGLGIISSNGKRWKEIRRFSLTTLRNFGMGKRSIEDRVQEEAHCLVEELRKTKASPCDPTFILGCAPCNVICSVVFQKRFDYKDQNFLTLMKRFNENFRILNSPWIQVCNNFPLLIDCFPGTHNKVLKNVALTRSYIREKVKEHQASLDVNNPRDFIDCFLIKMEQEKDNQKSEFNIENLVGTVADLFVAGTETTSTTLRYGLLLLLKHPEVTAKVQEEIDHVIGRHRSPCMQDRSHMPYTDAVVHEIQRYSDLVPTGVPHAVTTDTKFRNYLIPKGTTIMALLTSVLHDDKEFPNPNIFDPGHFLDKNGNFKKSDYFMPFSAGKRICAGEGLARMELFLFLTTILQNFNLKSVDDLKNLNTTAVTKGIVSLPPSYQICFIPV

[9] = Dose normalized Cmax in Wistar rat at 2 mg/kg, po after 8 to 72 hrs by LC-MS/MS analysis; type: ADME, organism-based; details: in vivo
[10] = Oral bioavailability in Wistar rat at 2 mg/kg after 8 to 72 hrs by LC-MS/MS analysis; type: ADME, organism-based; details: in vivo
[11] = molecular target: T1, Adenosine receptor A2b (Homo sapiens) (UniProt P29275); experiment: Antagonist activity at human A2B receptor expressed in HEK293 cells at 10 uM after 10 mins by HTRF assay relative to control; type: cell-based; parameters: scale not given: the % may be the effect or the level left
T1 sequence (whole entry): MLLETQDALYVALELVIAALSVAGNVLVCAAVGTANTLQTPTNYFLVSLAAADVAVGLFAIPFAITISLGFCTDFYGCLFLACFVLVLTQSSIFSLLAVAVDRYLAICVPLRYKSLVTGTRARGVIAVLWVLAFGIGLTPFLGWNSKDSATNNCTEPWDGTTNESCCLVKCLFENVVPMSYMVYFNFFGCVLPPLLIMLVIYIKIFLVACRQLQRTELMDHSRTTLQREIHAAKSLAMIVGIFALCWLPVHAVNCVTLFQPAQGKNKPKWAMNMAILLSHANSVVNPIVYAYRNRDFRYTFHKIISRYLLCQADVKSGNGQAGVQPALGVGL

[12] = molecular target: T2, Alpha-2A adrenergic receptor (Homo sapiens) (UniProt P08913); experiment: Antagonist activity at human alpha2A adrenergic receptor expressed in Chem-1 cells at 10 uM by fluorimetric method relative to control; type: cell-based; parameters: scale not given: the % may be the effect or the level left
T2 sequence (whole entry): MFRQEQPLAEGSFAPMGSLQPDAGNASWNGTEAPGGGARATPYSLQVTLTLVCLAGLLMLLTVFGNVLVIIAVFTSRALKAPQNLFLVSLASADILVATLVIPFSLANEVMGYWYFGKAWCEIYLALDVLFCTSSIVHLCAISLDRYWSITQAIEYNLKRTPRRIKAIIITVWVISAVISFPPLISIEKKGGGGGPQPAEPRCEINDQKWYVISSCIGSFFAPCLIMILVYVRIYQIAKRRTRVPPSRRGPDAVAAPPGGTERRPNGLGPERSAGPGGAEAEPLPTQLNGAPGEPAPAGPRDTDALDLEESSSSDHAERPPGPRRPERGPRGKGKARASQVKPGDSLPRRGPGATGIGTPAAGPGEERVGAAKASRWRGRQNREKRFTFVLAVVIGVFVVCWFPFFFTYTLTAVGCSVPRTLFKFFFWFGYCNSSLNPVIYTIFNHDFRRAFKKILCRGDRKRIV

[13] = molecular target: Beta-1 adrenergic receptor (Homo sapiens) (UniProt P08588); experiment: Agonist activity at human beta1 adrenergic receptor expressed in HEK293 cells at 10 uM after 30 mins HTRF assay relative to control; type: cell-based
Sequence of Beta-1 adrenergic receptor (Homo sapiens) (P08588 whole entry, looked up): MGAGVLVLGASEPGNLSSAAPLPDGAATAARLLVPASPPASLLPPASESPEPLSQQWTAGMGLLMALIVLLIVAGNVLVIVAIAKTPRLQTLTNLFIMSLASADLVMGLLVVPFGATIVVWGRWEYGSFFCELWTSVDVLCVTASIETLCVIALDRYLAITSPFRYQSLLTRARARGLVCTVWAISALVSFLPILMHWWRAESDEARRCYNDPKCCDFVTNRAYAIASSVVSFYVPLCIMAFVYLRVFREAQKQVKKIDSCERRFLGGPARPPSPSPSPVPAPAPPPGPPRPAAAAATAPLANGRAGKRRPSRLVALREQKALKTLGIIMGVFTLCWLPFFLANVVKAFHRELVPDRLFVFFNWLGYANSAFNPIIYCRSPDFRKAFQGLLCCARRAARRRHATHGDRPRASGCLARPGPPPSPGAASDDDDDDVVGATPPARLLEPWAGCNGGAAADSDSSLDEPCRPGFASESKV

[14] = molecular target: Cannabinoid receptor 1 (Homo sapiens) (UniProt P21554); experiment: Agonist activity at human CB1 receptor expressed in CHO-K1 cells at 10 uM after 20 mins HTRF assay relative to control; type: cell-based
Sequence of Cannabinoid receptor 1 (Homo sapiens) (P21554 whole entry): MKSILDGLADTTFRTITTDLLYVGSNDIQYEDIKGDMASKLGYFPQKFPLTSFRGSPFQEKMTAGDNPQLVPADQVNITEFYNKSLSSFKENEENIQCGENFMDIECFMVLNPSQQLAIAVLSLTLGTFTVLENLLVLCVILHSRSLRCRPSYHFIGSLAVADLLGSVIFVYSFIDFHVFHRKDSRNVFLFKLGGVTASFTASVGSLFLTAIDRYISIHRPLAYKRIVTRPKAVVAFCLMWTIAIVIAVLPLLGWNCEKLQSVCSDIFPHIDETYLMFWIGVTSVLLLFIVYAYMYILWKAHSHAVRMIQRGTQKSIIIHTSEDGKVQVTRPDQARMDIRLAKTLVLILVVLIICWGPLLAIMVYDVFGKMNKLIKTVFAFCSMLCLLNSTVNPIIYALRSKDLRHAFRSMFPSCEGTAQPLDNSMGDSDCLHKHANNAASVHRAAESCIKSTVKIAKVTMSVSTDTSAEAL

[15] = molecular target: Histamine H1 receptor (Homo sapiens) (UniProt P35367); experiment: Agonist activity at human histamine H1 receptor expressed in HEK293 cells at 10 uM by Fluorimetric method relative to control; type: cell-based
Sequence of Histamine H1 receptor (Homo sapiens) (P35367 whole entry): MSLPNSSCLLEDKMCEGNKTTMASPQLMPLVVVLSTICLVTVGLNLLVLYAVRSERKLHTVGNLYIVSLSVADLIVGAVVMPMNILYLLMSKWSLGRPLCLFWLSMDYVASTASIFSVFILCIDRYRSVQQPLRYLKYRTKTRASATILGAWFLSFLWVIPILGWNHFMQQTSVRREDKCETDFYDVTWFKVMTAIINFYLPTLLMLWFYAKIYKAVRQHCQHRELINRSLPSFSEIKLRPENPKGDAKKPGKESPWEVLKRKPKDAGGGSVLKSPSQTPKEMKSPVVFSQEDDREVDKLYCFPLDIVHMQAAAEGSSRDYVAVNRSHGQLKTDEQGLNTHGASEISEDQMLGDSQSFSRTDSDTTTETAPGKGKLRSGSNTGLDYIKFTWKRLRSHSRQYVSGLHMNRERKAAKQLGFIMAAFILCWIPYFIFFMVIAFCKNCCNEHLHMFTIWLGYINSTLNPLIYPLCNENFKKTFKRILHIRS

[16] = molecular target: Melanocortin receptor 4 (Homo sapiens) (UniProt P32245); experiment: Agonist activity at human MC4 receptor expressed in CHO-K1 cells at 10 uM after 30 mins by HTRF assay relative to control; type: cell-based
Sequence of Melanocortin receptor 4 (Homo sapiens) (P32245 whole entry): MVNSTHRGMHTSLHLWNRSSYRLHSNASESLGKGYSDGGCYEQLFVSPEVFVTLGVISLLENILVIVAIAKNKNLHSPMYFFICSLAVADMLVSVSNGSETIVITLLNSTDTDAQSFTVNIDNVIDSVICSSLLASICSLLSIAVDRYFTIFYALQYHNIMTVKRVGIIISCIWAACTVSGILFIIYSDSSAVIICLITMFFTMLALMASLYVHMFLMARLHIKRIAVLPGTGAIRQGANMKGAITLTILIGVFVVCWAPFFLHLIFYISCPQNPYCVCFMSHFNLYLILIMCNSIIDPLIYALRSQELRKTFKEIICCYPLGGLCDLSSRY

[17] = molecular target: Melanocortin receptor 4 (Homo sapiens) (UniProt P32245); experiment: Antagonist activity at human MC4 receptor expressed in CHO-K1 cells at 10 uM after 30 mins by HTRF assay relative to control; type: cell-based; parameters: scale not given: the % may be the effect or the level left
[18] = molecular target: Muscarinic acetylcholine receptor M4 (Homo sapiens) (UniProt P08173); experiment: Agonist activity at human muscarinic M4 receptor expressed in CHO-K1 cells at 10 uM after 10 mins by HTRF method relative to control; type: cell-based
Sequence of Muscarinic acetylcholine receptor M4 (Homo sapiens) (P08173 whole entry): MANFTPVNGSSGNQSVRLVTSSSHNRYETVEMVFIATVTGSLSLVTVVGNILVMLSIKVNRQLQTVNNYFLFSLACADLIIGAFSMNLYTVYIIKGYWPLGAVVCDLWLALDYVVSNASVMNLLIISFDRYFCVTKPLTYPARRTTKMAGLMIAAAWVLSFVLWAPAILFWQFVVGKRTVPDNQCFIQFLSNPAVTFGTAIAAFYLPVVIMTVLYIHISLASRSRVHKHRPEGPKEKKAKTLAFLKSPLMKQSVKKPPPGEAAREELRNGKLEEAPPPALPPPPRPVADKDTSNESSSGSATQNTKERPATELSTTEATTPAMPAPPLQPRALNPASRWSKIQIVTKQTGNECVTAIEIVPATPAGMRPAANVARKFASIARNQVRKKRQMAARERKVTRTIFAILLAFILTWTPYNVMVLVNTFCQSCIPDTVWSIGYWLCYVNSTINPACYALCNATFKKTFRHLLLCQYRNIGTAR

[19] = molecular target: Kappa-type opioid receptor (Homo sapiens) (UniProt P41145); experiment: Agonist activity at human kappa opioid receptor at 10 uM by Spectrophotometric method relative to control
Sequence of Kappa-type opioid receptor (Homo sapiens) (P41145 whole entry): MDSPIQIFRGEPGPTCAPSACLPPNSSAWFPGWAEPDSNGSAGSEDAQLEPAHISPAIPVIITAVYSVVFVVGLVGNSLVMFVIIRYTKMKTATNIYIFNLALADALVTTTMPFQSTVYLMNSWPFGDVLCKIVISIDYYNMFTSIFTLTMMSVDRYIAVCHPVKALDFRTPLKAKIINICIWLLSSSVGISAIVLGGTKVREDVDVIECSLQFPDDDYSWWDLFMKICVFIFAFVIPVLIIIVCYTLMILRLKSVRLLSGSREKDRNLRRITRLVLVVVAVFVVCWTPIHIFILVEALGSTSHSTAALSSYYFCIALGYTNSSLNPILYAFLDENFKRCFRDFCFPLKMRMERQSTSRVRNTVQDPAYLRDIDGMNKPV

[20] = molecular target: Mu-type opioid receptor (Homo sapiens) (UniProt P35372); experiment: Antagonist activity at human mu opioid receptor expressed in CHO-K1 cells at 10 uM after 10 mins by HTRF assay relative to control; type: cell-based; parameters: scale not given: the % may be the effect or the level left
Sequence of Mu-type opioid receptor (Homo sapiens) (P35372 whole entry): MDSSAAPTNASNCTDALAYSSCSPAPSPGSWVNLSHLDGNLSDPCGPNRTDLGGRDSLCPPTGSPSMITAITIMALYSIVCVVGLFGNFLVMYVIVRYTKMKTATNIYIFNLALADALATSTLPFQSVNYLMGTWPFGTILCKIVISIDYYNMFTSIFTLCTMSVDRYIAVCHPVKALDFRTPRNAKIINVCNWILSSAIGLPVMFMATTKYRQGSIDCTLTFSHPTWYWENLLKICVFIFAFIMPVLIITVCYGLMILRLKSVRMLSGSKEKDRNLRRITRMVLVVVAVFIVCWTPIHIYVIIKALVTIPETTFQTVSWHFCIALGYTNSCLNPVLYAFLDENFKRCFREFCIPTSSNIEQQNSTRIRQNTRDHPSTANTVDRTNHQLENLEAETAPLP

[21] = molecular target: P2Y purinoceptor 2 (Homo sapiens) (UniProt P41231); experiment: Antagonist activity at human P2Y2 receptor expressed in human 1321N1 cells at 10 uM by fluorimetric method relative to control; type: cell-based; parameters: scale not given: the % may be the effect or the level left
Sequence of P2Y purinoceptor 2 (Homo sapiens) (P41231 whole entry): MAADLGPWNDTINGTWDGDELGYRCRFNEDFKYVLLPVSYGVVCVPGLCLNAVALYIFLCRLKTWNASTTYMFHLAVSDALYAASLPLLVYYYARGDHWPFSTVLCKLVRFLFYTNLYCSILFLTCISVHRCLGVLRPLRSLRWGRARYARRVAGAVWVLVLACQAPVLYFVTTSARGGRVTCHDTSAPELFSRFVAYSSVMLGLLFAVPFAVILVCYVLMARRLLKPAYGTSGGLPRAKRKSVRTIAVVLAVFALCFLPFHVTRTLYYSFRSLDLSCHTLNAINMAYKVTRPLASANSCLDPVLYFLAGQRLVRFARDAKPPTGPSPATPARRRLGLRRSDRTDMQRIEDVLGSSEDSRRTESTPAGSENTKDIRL

[22] = molecular target: 5-hydroxytryptamine receptor 2B (Homo sapiens) (UniProt P41595); experiment: Agonist activity at human 5-HT2B receptor expressed in CHO-K1 cells at 10 uM after 30 mins by HTRF assay relative to control; type: cell-based
Sequence of 5-hydroxytryptamine receptor 2B (Homo sapiens) (P41595 whole entry): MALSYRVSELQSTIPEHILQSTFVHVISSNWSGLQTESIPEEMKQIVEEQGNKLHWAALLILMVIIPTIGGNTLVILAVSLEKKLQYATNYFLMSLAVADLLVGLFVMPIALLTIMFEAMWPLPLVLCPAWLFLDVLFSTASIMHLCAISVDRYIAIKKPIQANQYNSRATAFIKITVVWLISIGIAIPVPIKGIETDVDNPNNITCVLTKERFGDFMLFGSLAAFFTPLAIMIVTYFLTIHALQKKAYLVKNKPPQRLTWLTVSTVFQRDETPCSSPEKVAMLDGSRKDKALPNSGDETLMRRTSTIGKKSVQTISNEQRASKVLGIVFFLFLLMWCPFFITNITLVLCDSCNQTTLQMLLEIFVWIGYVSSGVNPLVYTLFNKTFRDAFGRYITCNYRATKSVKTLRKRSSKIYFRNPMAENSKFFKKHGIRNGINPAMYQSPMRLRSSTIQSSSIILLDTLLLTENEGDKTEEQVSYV

[23] = molecular target: 5-hydroxytryptamine receptor 2B (Homo sapiens) (UniProt P41595); experiment: Antagonist activity at human 5-HT2B receptor expressed in CHO-K1 cells at 10 uM after 30 mins by HTRF assay relative to control; type: cell-based; parameters: scale not given: the % may be the effect or the level left
[24] = molecular target: Somatostatin receptor type 4 (Homo sapiens) (UniProt P31391); experiment: Agonist activity at human sst4 expressed in CHO-K1 cells at 10 uM after 10 mins by HTRF assay relative to control; type: cell-based
Sequence of Somatostatin receptor type 4 (Homo sapiens) (P31391 whole entry): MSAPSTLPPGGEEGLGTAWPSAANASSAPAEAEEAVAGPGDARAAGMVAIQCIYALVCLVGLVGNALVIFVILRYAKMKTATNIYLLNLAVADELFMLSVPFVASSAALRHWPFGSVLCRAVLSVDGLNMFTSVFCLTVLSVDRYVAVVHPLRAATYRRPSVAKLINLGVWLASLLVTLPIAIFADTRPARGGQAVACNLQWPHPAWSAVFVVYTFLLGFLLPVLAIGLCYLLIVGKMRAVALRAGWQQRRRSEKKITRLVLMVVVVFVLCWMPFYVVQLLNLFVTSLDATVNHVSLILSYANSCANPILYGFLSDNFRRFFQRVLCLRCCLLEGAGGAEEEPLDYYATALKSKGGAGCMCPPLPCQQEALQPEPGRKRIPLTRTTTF

Rattus norvegicus [25] = experiment: Induction of long-term effect on estrus cycle in 4 day cycle of normally cycling female rat assessed as changes in vaginal smears at 12.5 mg/kg, po administered once daily for 8 days; type: functional, organism-based
Rattus norvegicus [26] = experiment: Downregulation of estradiol level in proestrus staged-female rat serum at 12.5 mg/kg, po administered once daily for 8 days and measured by radioimmunoassay method (reference value: 144 pmol/L); type: functional

Compound | IC50 [1] | Papp A→B at 2 h, 2 µM [2] | Fh at 1 µM [3] | solubility at 24 h [4] | Stability [5] | Papp B→A at 2 h, 2 µM [6] | CLH [7] | Fh at 1 µM [8] | IC50 (Cytochrome P450 2C8) | Cmax/dose [9] | bioavailability [10] | Activity [11] | Activity [12] | Activity [13] | Activity [14] | Activity [15] | Activity [16] | Activity [17] | Activity [18] | Activity [19] | other results
O=C(Nc1cnc(Oc2ccc(F)cc2)nc1)N1CCc2ncccc2[C@@H]1c1ccc(F)cc1 [BAY-899] | 185 nM | 8.9 ×10⁻⁶ cm/s | 89% | 39 µg/mL (≈ 84.9 µM) | Stable | 9.5 ×10⁻⁶ cm/s | 3.3 mL/min/kg | 95% | 3100 nM | 0.066 kg/L | 108% | < 70% | < 70% | < 70% | < 70% | < 70% | < 70% | < 70% | < 70% | < 70% | Activity [20]: < 70%; Activity [21]: < 70%; Activity [22]: < 70%; Activity [23]: < 70%; Activity [24]: < 70%; Activity (Rattus norvegicus [25]): Active; Activity (Rattus norvegicus [26]): 54 pmol/L
O=C(Nc1ccc(Oc2ccc(F)cc2)cc1)N1CCc2ncccc2[C@@H]1c1ccc(Cl)cc1 | 96 nM | 1.5 ×10⁻⁶ cm/s | 85% | 3.5 µg/mL (≈ 7.38 µM) | Stable | 2 ×10⁻⁶ cm/s | 3.3 mL/min/kg | 94% | 700 nM | 0.24 kg/L | 83% | < 70% | < 70% | < 70% | < 70% | < 70% | < 70% | < 70% | < 70% | < 70% | Activity [20]: < 70%; Activity [21]: < 70%; Activity [22]: < 70%; Activity [23]: < 70%; Activity [24]: < 70%; Activity (Rattus norvegicus [25]): Active; Activity (Rattus norvegicus [26]): 57 pmol/L
